From patent publication US20250161319A1, “USE OF HPK1 INHIBITOR IN TREATMENT OF INTERFERON-RELATED DISEASES” (priority 2022, published 2025)

Experiments:
[1] = target: GCK (Homo sapiens (Human), UniProt Q12851); experiment: Inhibition of GCK kinase activity in vitro (ADP-Glo); type: biochemical
Procedure: (§1) The starting concentration for all tested compounds was 10 μM, and diluted in three-fold concentration gradient for a total of 10 concentration points in duplicate. […] A mixture of 2-fold concentration of MBP and ATP was prepare in the kinase buffer, and 2.5 μL of prepared mixture of 2-fold concentration of MBP and ATP was added into the above reaction system for the reaction, centrifuged at 1000 g for 30 s, and then incubated at room temperature for 1 h. 5 μL of ADP-Glo reagent was added into the reaction system, and incubated at room temperature for 40 min. 10 μL of kinase detection reagent was added and incubated at room temperature for 40 min.

[2] = tested on: ERK1.2; experiment: Kinase panel inhibition rate at 10 μM; type: biochemical
[3] = target: EGFR (Homo sapiens (Human), UniProt P00533); experiment: Kinase panel inhibition rate at 10 μM; type: biochemical
[4] = target: JAK1 (Homo sapiens (Human), UniProt P23458); experiment: Kinase panel inhibition rate at 10 μM; type: biochemical
[5] = target: LYNB (Homo sapiens (Human), UniProt P07948); experiment: Kinase panel inhibition rate at 10 μM; type: biochemical
[6] = target: CDK7 (Homo sapiens (Human), UniProt P50613); experiment: Kinase panel inhibition rate at 10 μM; type: biochemical
[7] = target: HER2 (Homo sapiens (Human), UniProt P04626); experiment: Kinase panel inhibition rate at 10 μM; type: biochemical
[8] = target: ZAP70 (Homo sapiens (Human), UniProt P43403); experiment: Kinase panel inhibition rate at 10 μM; type: biochemical
[9] = target: TNIK (Homo sapiens (Human), UniProt Q9UKE5); experiment: Inhibition of TNIK kinase activity in vitro (ADP-Glo); type: biochemical
Procedure: as §1

[10] = target: HPK1 (Homo sapiens (Human), UniProt Q92918); experiment: Inhibition of HPK1 kinase activity in vitro (ADP-Glo), compounds of Formula I-2; type: biochemical
Procedure: The starting concentration for all tested compounds was 10 μM, and diluted in three-fold concentration gradient for a total of 10 concentration points in duplicate. Before the experiment, 50 μM DTT and the enzymatic reaction system buffer were prepared. […] A mixture of 2-fold concentration of MBP and ATP was prepare in the kinase buffer, and 2.5 μL of prepared mixture of 2-fold concentration of MBP and ATP was added into the above reaction system for the reaction, centrifuged at 1000 g for 30 s, and then incubated at room temperature for 1 h. 5 μL of ADP-Glo reagent was added into the reaction system, and incubated at room temperature for 40 min. 10 μL of kinase detection reagent was added and incubated at room temperature for 40 min. […] In the above formula, empd refers to the tested compound, PC refers to the positive control, and VC refers to the negative control.

[11] = target: LCK (Homo sapiens (Human), UniProt P06239); experiment: Kinase panel inhibition rate at 10 μM; type: biochemical
[12] = target: CK1gamma1 (Homo sapiens (Human), UniProt Q9HCP0); experiment: Kinase panel inhibition rate at 10 μM; type: biochemical
[13] = target: PDK1 (Homo sapiens (Human), UniProt O15530); experiment: Inhibition of PDK1 kinase activity in vitro (ADP-Glo); type: biochemical
Procedure: as §1

[14] = target: ROS1 (Homo sapiens (Human), UniProt P08922); experiment: Kinase panel inhibition rate at 10 μM; type: biochemical
[15] = target: CDK4 (Homo sapiens (Human), UniProt P11802); experiment: Kinase panel inhibition rate at 10 μM; type: biochemical
[16] = Determination of pharmacokinetic parameters in SD rats; type: in vivo; conditions: rat, plasma, oral; male SD rats; intravenously 2 mg/kg, gavage 10 mg/kg; read-out: Absolute oral bioavailability %
Procedure: The compounds to be tested were administered intravenously (2 mg/kg) and by gavage ([…]) to three male SD rats, respectively, and the blood concentration of the compounds to be tested in plasma was quantified by liquid chromatography tandem mass spectrometry ([…]), and the pharmacokinetic parameters were calculated to investigate the pharmacokinetic profiles of the compounds to be tested in the SD male rats. For the compounds to be tested, blood was taken at the time points of 0.25 h, 0.5 h, 1 h, 2 h, 4 h, 6 h, 8 h and 24 h after oral administration, and blood was taken at the time points of 0.083 h, 0.25 h, 0.5 h, 1 h, 2 h, 4 h, 6 h, 8 h and 24 h after intravenous administration. Subsequently, 50 μL of plasma sample was transferred to a 96-well plate and 250 μLACN (internal standard containing 260 ng/ml toluenesulfonylbutyramide) to precipitate proteins, and centrifuged at 4° C. and 4000 rpm for 20 min, 150 μL of the supernatant was transferred to a new 96-well plate and mixed with 150 μL of 0.1% FA/water, and then 5 μL of the resulting solution was loaded on LC-MS/MS for analysis.

[17] = target: IGFIR (Homo sapiens (Human), UniProt P08069); experiment: Kinase panel inhibition rate at 10 μM; type: biochemical
[18] = tested on: MNK1/2; experiment: Kinase panel inhibition rate at 10 μM; type: biochemical
[19] = Acute toxicity assay of DD02001A_trans in mice by gavage; type: in vivo; conditions: single dose, observed 14 days
Procedure: Mice were given DD02001A_trans (2000, 1500, 1000, and 500 mg/kg) by gavage in a single dose, respectively, and the responses of the mice after administration and their deaths within two weeks were recorded. • 2.2.5.1 Animals: Kunming breed mice (purchased from Guangdong Provincial Laboratory Animal Centre, License No.: SCXK(GD) 2018-0002), 10 mice, half male and half female, weighing 18-22 g. The mice were kept for three days to adapt to the environment. […] Necropsy was carried out on the dead animals in time to record the lesions. If obvious changes are visible to naked eyes, pathological section should be made.

[20] = target: CSF1R (Homo sapiens (Human), UniProt P07333); experiment: Kinase panel inhibition rate at 10 μM; type: biochemical
[21] = target: ATR (Homo sapiens (Human), UniProt Q13535); experiment: Kinase panel inhibition rate at 10 μM; type: biochemical
[22] = target: p38-alpha (Homo sapiens (Human), UniProt Q16539); experiment: Kinase panel inhibition rate at 10 μM; type: biochemical
[23] = target: AKT1 (Homo sapiens (Human), UniProt P31749); experiment: Kinase panel inhibition rate at 10 μM; type: biochemical
[24] = target: IKK-beta (Homo sapiens (Human), UniProt O14920); experiment: Kinase panel inhibition rate at 10 μM; type: biochemical
[25] = target: PI3Kα (Homo sapiens (Human), UniProt P42336); experiment: Kinase panel inhibition rate at 10 μM; type: biochemical
[26] = target: SYK (Homo sapiens (Human), UniProt P43405); experiment: Kinase panel inhibition rate at 10 μM; type: biochemical
[27] = target: CDK12 (Homo sapiens (Human), UniProt Q9NYV4); experiment: Kinase panel inhibition rate at 10 μM; type: biochemical

Chain of PDK1 (O15530 whole entry): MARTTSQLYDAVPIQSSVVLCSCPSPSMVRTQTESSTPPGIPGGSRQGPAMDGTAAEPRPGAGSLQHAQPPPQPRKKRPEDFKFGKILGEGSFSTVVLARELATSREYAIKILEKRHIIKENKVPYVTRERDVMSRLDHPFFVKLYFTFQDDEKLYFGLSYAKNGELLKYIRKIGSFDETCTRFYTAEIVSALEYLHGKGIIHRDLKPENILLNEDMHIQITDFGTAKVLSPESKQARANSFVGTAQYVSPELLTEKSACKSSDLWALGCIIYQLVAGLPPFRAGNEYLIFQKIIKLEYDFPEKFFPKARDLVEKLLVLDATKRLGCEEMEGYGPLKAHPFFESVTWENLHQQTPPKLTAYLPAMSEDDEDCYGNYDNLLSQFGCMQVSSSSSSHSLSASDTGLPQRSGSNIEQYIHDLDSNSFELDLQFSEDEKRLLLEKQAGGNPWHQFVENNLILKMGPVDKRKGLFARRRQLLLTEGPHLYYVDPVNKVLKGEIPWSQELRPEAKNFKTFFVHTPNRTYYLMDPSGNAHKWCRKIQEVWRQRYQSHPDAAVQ
Chain of CDK7 (P50613 whole entry): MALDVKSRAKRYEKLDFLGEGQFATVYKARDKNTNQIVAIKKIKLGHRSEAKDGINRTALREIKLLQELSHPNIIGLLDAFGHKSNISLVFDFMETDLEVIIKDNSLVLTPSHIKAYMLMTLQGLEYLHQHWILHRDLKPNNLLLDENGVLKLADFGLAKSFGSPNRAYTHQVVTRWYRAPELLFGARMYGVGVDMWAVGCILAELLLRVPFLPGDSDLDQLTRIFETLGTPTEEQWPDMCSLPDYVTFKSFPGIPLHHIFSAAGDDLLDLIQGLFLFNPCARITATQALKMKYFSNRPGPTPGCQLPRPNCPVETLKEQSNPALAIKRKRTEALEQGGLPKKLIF
Chain of CDK7 (P51946 whole entry partner): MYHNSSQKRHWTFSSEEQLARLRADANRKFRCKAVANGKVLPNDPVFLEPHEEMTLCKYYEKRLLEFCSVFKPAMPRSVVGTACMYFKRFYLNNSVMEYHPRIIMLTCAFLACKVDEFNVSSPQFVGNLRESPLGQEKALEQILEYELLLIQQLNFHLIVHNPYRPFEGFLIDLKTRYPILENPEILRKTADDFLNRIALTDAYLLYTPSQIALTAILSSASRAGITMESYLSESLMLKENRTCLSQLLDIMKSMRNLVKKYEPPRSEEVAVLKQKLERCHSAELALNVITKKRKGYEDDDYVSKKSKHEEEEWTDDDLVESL
Chain of CDK7 (P51948 whole entry partner): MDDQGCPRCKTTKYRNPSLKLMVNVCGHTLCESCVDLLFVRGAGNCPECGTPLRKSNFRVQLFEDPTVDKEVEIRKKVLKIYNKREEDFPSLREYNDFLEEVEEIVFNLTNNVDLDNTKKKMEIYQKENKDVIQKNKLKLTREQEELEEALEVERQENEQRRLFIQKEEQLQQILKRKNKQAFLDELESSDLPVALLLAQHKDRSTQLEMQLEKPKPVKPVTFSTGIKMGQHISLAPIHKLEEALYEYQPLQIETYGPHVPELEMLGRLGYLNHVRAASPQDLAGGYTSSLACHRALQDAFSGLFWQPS
Chain of EGFR (P00533 25-1210): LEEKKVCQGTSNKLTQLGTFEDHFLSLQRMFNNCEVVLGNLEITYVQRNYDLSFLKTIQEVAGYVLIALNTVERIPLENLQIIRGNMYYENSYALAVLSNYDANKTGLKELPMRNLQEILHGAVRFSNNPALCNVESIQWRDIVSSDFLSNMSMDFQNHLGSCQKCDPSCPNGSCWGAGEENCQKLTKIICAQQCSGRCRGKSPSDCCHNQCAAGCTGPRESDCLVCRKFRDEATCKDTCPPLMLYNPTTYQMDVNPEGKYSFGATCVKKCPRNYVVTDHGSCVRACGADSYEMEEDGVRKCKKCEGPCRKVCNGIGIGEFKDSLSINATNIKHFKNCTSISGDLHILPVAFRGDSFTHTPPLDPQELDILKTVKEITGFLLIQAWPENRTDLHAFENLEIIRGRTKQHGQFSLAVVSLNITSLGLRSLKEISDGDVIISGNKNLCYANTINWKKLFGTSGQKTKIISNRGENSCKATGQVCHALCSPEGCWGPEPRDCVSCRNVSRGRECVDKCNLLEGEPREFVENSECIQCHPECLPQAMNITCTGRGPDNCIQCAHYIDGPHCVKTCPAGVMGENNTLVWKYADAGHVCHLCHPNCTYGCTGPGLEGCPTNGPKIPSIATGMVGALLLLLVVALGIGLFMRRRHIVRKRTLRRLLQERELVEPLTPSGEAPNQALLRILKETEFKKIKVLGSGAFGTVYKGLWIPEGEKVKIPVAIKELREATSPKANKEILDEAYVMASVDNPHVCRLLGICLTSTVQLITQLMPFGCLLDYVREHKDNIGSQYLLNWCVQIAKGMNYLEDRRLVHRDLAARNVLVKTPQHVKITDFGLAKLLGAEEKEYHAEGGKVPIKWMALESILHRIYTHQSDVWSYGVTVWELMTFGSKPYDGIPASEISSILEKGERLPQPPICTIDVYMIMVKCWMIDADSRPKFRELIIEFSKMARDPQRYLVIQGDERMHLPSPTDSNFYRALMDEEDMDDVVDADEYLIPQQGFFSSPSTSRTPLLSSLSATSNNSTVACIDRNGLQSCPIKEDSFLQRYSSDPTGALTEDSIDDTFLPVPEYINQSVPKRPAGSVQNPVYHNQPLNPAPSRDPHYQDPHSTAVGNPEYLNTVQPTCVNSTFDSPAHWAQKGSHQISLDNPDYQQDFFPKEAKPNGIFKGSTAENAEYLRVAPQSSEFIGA
Chain of ZAP70 (P43403 whole entry): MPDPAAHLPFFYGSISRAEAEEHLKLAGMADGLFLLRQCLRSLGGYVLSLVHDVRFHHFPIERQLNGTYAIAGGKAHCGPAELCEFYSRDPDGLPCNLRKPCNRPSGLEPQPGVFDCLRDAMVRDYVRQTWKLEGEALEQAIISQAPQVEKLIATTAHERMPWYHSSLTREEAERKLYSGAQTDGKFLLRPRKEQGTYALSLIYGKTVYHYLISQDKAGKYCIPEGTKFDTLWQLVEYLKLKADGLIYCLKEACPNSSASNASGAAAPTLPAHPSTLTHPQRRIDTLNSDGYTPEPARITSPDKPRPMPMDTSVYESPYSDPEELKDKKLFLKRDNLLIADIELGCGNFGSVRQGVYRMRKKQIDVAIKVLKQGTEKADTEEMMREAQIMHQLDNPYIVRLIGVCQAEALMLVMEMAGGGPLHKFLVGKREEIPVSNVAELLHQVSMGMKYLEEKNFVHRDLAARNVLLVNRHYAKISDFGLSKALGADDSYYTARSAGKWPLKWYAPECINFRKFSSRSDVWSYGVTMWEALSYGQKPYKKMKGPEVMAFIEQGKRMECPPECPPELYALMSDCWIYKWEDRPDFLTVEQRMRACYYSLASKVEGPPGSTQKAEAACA
Chain of JAK1 (P23458 whole entry): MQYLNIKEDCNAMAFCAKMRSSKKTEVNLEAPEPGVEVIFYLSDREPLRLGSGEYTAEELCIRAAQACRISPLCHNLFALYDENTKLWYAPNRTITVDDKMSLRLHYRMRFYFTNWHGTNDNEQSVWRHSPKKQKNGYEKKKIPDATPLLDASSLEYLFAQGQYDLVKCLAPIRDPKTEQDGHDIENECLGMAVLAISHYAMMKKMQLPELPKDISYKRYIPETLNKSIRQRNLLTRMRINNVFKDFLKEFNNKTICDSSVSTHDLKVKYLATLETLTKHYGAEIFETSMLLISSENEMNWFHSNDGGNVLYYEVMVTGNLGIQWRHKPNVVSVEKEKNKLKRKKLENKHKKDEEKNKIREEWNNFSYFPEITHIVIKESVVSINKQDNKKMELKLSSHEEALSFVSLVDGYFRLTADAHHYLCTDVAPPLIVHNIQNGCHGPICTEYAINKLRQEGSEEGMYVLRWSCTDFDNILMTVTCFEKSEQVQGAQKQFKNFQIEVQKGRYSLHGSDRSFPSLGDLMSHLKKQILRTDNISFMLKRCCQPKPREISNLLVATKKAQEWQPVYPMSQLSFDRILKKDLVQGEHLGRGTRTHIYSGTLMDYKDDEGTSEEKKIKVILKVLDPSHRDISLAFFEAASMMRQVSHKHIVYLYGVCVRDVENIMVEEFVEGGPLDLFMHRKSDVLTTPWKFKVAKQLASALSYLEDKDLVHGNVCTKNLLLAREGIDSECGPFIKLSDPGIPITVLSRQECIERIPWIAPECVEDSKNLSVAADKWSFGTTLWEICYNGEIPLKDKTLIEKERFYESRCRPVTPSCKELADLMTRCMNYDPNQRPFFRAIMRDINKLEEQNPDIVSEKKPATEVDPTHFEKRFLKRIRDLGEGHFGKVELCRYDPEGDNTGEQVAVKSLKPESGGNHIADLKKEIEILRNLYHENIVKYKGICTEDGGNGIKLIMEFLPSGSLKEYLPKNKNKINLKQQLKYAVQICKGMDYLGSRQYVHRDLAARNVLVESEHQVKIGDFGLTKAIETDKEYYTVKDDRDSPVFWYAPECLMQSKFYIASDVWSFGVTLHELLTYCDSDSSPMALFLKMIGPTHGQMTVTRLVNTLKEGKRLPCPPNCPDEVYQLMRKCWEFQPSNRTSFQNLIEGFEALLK
Chain of CK1gamma1 (Q9HCP0 whole entry): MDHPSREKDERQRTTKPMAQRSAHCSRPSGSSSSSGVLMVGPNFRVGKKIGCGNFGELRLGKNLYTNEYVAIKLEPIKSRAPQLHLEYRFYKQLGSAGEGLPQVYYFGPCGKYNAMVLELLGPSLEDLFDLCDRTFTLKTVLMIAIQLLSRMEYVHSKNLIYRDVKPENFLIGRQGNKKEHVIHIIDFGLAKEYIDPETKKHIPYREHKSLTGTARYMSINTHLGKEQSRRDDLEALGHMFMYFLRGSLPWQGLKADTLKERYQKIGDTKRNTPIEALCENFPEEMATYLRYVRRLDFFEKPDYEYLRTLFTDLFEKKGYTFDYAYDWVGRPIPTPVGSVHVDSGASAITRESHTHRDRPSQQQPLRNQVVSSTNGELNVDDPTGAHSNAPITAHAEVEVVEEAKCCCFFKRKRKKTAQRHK

Cn1cccc1-c1cc2cc(NC(=O)[C@@H]3C[C@H]3F)ncc2c(N)c1F [DD02001A trans, (1S,2R)—N-(8-amino-7-fluoro-6-(1-methyl-1H-pyrrole-2-yl)isoquinolin-3-yl)-2-fluorocyclopropane-1-carboxamide]
IC50 [1]: > 0.01 µM | inhibition rate ERK1.2 [2]: < 40% | inhibition at 10 µM [3]: < 40% | inhibition at 10 µM [4]: 97.3% | inhibition at 10 µM [5]: 82.9% | inhibition at 10 µM [6]: < 40% | inhibition at 10 µM [7]: < 40% | inhibition at 10 µM [8]: < 40% | IC50 [9]: > 0.01 µM | IC50 [10]: < 0.01 µM | inhibition at 10 µM [11]: 87.6% | inhibition at 10 µM [12]: < 40% | IC50 [13]: > 10 µM | inhibition at 10 µM [14]: < 40% | inhibition at 10 µM [15]: < 40% | bioavailability [16]: 61.3% | inhibition at 10 µM [17]: < 40% | inhibition rate MNK1/2 [18]: < 40% | maximum tolerated dosage by gavage [19]: 1000 to 1500 mg/kg | inhibition at 10 µM [20]: 102% | inhibition at 10 µM [21]: < 40% | inhibition at 10 µM [22]: < 40% | inhibition at 10 µM [23]: < 40% | inhibition at 10 µM [24]: < 40% | inhibition at 10 µM [25]: 79.1% | inhibition at 10 µM [26]: 85.1% | inhibition at 10 µM [27]: < 40%
